Reference: ChEMBL document CHEMBL1128203, “Synthesis and structure-activity relationships of acetylcholinesterase inhibitors: 1-benzyl-4-[(5,6-dimethoxy-1-oxoindan-2-yl)methyl]piperidine hydrochloride and related compounds” (J Med Chem, 1995)

Molecular target: T1, Acetylcholinesterase (Mus musculus, UniProt P21836)
T1 sequence (P21836 whole entry): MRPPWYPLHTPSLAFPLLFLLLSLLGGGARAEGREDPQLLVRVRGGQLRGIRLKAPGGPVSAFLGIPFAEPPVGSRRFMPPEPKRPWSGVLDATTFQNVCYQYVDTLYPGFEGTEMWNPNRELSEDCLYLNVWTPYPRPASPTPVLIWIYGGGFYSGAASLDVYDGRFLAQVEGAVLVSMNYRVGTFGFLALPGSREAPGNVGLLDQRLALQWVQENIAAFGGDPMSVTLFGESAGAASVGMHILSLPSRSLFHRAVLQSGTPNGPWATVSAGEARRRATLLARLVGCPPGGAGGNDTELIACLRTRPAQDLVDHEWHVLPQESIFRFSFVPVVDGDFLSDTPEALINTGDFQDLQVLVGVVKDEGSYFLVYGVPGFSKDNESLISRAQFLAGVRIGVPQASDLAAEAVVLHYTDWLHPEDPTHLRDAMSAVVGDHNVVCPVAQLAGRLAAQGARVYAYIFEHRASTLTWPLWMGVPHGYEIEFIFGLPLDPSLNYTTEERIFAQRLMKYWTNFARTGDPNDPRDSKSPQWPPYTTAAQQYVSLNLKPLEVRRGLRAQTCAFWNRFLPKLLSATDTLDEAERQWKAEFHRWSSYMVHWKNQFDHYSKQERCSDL
Description: Inhibitory activity against acetylcholinesterase

Row | SMILES | IC50 [nM]
1 | COc1ccc(OC)c2c1CC(CC1CCN(Cc3ccccc3)CC1)C2=O (stereo not drawn) | 36
2 | COc1cc2c(cc1OC)C(=O)/C(=C\C1CCN(Cc3ccccc3)CC1)C2 | 13
3 | COc1cc2c(cc1OC)C(=O)C(CCCC1CCN(Cc3ccccc3)CC1)C2 (stereo not drawn) | 1.5
4 | COc1ccc2c(c1OC)CC(CC1CCN(Cc3ccccc3)CC1)C2=O (stereo not drawn) | 20
5 | CNC(=O)Oc1ccc2c(c1)[C@]1(C)CCN(C)[C@@H]1N2C [PHYSOSTIGMINE] | 0.68
6 | COc1cc2c(cc1OC)C(=O)C(CC1CCN(Cc3cccc(C)c3)CC1)C2 (stereo not drawn) | 2
7 | COc1ccc2c(c1OC)C(=O)C(CC1CCN(Cc3ccccc3)CC1)C2 (stereo not drawn) | 85
8 | O=C1c2ccccc2CC1CCC1CCN(Cc2ccccc2)CC1 (stereo not drawn) | 230
